Test results reported in patent publication US12668589B2, “N-formamidopyrazoline derivative as P2X3 receptor antagonist and use thereof” (HANGZHOU WESTAN PHARMACEUTICAL TECHNOLOGY CO., LTD, priority 2020, dated 2026).

Assays:
[1] = Stability in simulated gastric fluids and simulated intestinal fluids; type: in vitro ADME; conditions: 1.25 μM, 37° C., up to 5 hours, pH 1.3 with pepsin / pH 6.8 with trypsin; result in words
Method: An LC-MS/MS method, wherein A liquid phase method adopts a gradient elution method. Chromatographic Column: ACQUITY UPLC® BEH C18 (2.1 mm×50 mm, 1.7 μm); Flow Rate: 0.35 mL/min; Injection Volume: 1 μL; Column Temperature: 40° C.; Automatic Sampler Temperature: 10° C.; Mobile Phase Compositions: mobile phase A: 0.1% formic acid water, and mobile phase B: acetonitrile. Mass spectrometry conditions adopt an ESI source, and positive ion and multiple reaction monitoring (MRM) modes were used for mass spectrometry analysis.
Simulated gastric fluid and simulated intestinal fluid samples were taken, in which 1,200 μL of an acetonitrile solution containing an internal standard (5 ng/mL loratadine) was added. Even vortex mixing was conducted at 2,500 rpm. Centrifuging was conducted for 10 minutes at 20,000 rcf at 4° C. […] Contents of prototype drugs were detected by LC-MS/MS. […]
MassLynx V4.2 software was used for data collecting. After integration parameters were optimized, target chromatographic peaks were automatically integrated, individual chromatographic peaks were not allowed to be integrated separately or manually, and retention time and a peak area were calculated. Data was collected by MassLynx V4.2, and subjected to integration processing to obtain the retention time and the peak area, and a peak area ratio of an analyte to an internal standard was calculated. […]

gpP2X3 = target: T1, gpP2X3 (Cavia porcellus, UniProt H0VWY5); assay: Inhibitory activity against P2X3 in guinea pigs (electrophysiological method); type: cell-based; conditions: guinea pig P2X3, electrophysiological method
T1 sequence (H0VWY5 1-391): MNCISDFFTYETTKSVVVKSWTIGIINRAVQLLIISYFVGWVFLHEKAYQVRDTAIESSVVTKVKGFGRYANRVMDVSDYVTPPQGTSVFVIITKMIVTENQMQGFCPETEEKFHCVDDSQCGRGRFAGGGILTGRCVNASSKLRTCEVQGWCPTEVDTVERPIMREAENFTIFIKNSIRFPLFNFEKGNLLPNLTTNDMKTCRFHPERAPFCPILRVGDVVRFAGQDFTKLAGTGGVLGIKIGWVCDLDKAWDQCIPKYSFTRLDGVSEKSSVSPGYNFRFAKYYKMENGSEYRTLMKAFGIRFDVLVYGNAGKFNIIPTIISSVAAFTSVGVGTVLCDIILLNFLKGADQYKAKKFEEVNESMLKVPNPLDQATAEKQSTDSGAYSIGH

human P2X4 = target: T2, human P2X4 (Homo sapiens, UniProt Q99571); assay: Inhibitory activity against human P2X4 (electrophysiological method); type: cell-based; conditions: read-out: hP2X4 (IC50)
T2 construct: expressed in transfected cells; host or cells: HEK293
T2 sequence (Q99571 1-388): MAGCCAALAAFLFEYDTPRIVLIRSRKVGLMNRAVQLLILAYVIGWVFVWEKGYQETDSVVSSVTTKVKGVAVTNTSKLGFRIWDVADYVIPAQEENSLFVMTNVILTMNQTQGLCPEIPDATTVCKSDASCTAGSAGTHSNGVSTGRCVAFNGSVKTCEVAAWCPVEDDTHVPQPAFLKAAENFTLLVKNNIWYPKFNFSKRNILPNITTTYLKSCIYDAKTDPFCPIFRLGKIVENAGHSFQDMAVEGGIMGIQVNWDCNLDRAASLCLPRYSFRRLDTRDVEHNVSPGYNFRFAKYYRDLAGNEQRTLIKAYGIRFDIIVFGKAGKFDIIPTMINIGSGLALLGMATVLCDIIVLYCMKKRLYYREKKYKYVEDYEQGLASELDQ

| stability in artificial gastric and intestinal fluids [1] | IC50 (gpP2X3) [µM] | IC50 (human P2X4) [µM] | Compound |
| --- | --- | --- | --- |
| relatively stable | 0.421 |  | CCOC(=O)N(C)[C@H]1CN(C(=O)N[C@H](C)c2cnc(C(F)(F)F)nc2)N=C1c1ccc(C)cc1 [Compound 4, (S)-4-(N-methyl-N-ethoxycarbonylamino)-3-(4-methylphenyl)-N-((R)-1-(2-(trifluoromethyl)pyrimidin-5-yl)ethyl)-4,5-dihydro-1H-pyrazol-1-carboxamide] |
| relatively stable | 0.297 | > 20 | Cc1ccc(C2=NN(C(=O)N[C@H](C)c3ccc(C(F)(F)F)nc3)C[C@@H]2N2CCOC2=O)cc1 [Compound 22] |
